This passage reports EC50 results from patent publication US20240101531A1, “PYRIDINAMINE DERIVATIVES AND THEIR USE AS POTASSIUM CHANNEL MODULATORS” (Xenon Pharmaceuticals Inc., priority 2022, published 2024).

This test has as its target human KV7.2/KV7.3 (Homo sapiens (Human), UniProt O43525+O43526). Put plainly: Potassium flux assay (IPG-2 AM dye). The format is cell-based. To be noted: TREX HEK 293 or HEK 293 cells expressing human KV7.2/KV7.3; arithmetic mean values. The gist of the method:
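EC50 from 16 concentrations (2-fold dilutions, top 30 μM), scaled between DMSO baseline and a known KV7.x modulator maximum. Signal is IPG-2 AM fluorescence (ex 530/em 558 nm) after 10 mM KCl challenge buffer addition, following 20 min room-temperature compound exposure of HEK 293 or TREX HEK 293 cells stably expressing human KV7.2/KV7.3.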

As for `FC1(F)COCC1Oc1ccc2c(Nc3ccc(Cl)nc3)nccc2c1` (stereo not shown) [Example 86, N-(6-chloropyridin-3-yl)-6-((4,4-difluorotetrahydrofuran-3-yl)oxy)isoquinolin-1-amine 2,2,2-trifluoroacetate], the EC50 is 1000 to 10000 nM. Then `Cc1nn(C)cc1C(C)Oc1ccc2c(Nc3ccc(Cl)nc3)nccc2c1` (racemic) [Example 173, N-(6-chloropyridin-3-yl)-6-(1-(1,3-dimethyl-1H-pyrazol-4-yl)ethoxy)isoquinolin-1-amine], with 1000 to 10000 nM. Then `CC(C)(C#N)COc1ccc2c(Nc3ccc(Cl)nc3)nccc2c1` [Example 78, 3-((1-((6-chloropyridin-3-yl)amino)isoquinolin-6-yl)oxy)-2,2-dimethylpropanenitrile], with 1000 to 10000 nM; and `Clc1ccc(Nc2nccc3cc(COc4cn[nH]c4)ccc23)cn1` [Example 304, 6-(((1H-pyrazol-4-yl)oxy)methyl)-N-(6-chloropyridin-3-yl)isoquinolin-1-amine], with 1000 to 10000 nM.

In the case of `CC1(CCc2ccc3c(Nc4ccc(Cl)nc4)nccc3c2)COC1` [Example 341, N-(6-chloropyridin-3-yl)-6-(2-(3-methyloxetan-3-yl)ethyl)isoquinolin-1-amine], the half-maximal effective concentration (EC50) was 1000 to 10000 nM. Then `Clc1ccc(Nc2nccc3cc(OC4CC5(COC5)C4)ccc23)cn1` [Example 113, 6-((2-oxaspiro[3.3]heptan-6-yl)oxy)-N-(6-chloropyridin-3-yl)isoquinolin-1-amine], with less than 1000 nM.

For the compound `Cc1ncc(Nc2nccc3cc(OC(C)c4cnn(C)c4)ccc23)cn1` (stereo not shown) [Example 169, 6-(1-(1-methyl-1H-pyrazol-4-yl)ethoxy)-N-(2-methylpyrimidin-5-yl)isoquinolin-1-amine], the EC50 lay in the range of 1000 to 10000 nM. Then `Clc1ccc(Nc2nccc3cc(OCCC4COC4)ccc23)cn1` [Example 89, N-(6-chloropyridin-3-yl)-6-(2-(oxetan-3-yl)ethoxy)isoquinolin-1-amine], with less than 1000 nM; and `FC1(COc2ccc3c(Nc4ccc(Cl)nc4)nccc3c2)CCOC1` (stereo in doubt) [Example 364, (R)—N-(6-chloropyridin-3-yl)-6-((3-fluorotetrahydrofuran-3-yl)methoxy)isoquinolin-1-amine], with less than 1000 nM; and `COc1ccc(Nc2nccc3cc(OCC4(C)COC4)ccc23)cn1` [Example 67, N-(6-methoxypyridin-3-yl)-6-((3-methyloxetan-3-yl)methoxy)isoquinolin-1-amine], with not below 30000 nM.

Regarding `N=[S@@]1(=O)CCC[C@@H](COc2ccc3c(Nc4cnc(Cl)nc4)nccc3c2)C1` (relative stereo) [Example 367, trans-3-(((1-((2-chloropyrimidin-5-yl)amino)isoquinolin-6-yl)oxy)methyl)-1-iminohexahydro-1λ^6-thiopyran 1-oxide], the EC50 is less than 1000 nM. Then `FC1(F)CC1COc1ccc2c(Nc3ccc(Cl)nc3)nccc2c1` (stereo not shown) [Example 404, N-(6-chloropyridin-3-yl)-6-((2,2-difluorocyclopropyl)methoxy)isoquinolin-1-amine], with less than 1000 nM; and `COc1ncc(Nc2nccc3cc(OCc4cn[nH]c4C)ccc23)cn1` [Example 388, N-(2-methoxypyrimidin-5-yl)-6-((5-methyl-1H-pyrazol-4-yl)methoxy)isoquinolin-1-amine], with less than 1000 nM.

With `Oc1ccc2c(Nc3ccc(Cl)nc3)nccc2c1` [Example 69, 1-((6-chloropyridin-3-yl)amino)isoquinolin-6-ol], the EC50 was in the range of 10000 to 30000 nM.

As for `OC1(COc2ccc3c(Nc4ccc(Cl)nc4)nccc3c2)COC1` [Example 394, 3-(((1-((6-chloropyridin-3-yl)amino)isoquinolin-6-yl)oxy)methyl)oxetan-3-ol], the EC50 is 1000 to 10000 nM.

On to `C[C@@H]1COCCN1CCOc1ccc2c(Nc3ccc(Cl)nc3)nccc2c1` [Example 322, (R)-N-(6-chloropyridin-3-yl)-6-(2-(3-methylmorpholino)ethoxy)isoquinolin-1-amine], for which the EC50 lay within 1000 to 10000 nM. `CS(=O)(=O)C1(COc2ccc3c(Nc4ccc(Cl)nc4)nccc3c2)CC1` [Example 286, N-(6-chloropyridin-3-yl)-6-((1-(methylsulfonyl)cyclopropyl)methoxy)isoquinolin-1-amine]: the EC50 was in the range of 1000 to 10000 nM. Then `FC1(COc2ccc3c(Nc4ccc(Cl)nc4)nccc3c2)CCOCC1` [Example 239, N-(6-chloropyridin-3-yl)-6-((4-fluorotetrahydro-2H-pyran-4-yl)methoxy)isoquinolin-1-amine], with less than 1000 nM.

Regarding `FC(F)C1(COc2ccc3c(Nc4ccc(Cl)nc4)nccc3c2)CC1` [Example 326, N-(6-chloropyridin-3-yl)-6-((1-(difluoromethyl)cyclopropyl)methoxy)isoquinolin-1-amine], the EC50 is less than 1000 nM.

As to `C#CC1(COc2ccc3c(Nc4ccc(Cl)nc4)nccc3c2)CC1` [Example 151, N-(6-chloropyridin-3-yl)-6-((1-ethynylcyclopropyl)methoxy)isoquinolin-1-amine], the EC50 was less than 1000 nM.

As for `CC(=O)N[C@H]1CC[C@H](Oc2ccc3c(Nc4ccc(Cl)nc4)nccc3c2)CC1` [Example 317, N-(trans-4-((1-((6-chloropyridin-3-yl)amino)isoquinolin-6-yl)oxy)cyclohexyl)acetamide], the concentration for a half-maximal effect (EC50) was 1000 to 10000 nM.

On to `CC1(C)CC[C@@H](COc2ccc3c(Nc4ccc(Cl)nc4)nccc3c2)O1` [Example 405, (S)-N-(6-chloropyridin-3-yl)-6-((5,5-dimethyltetrahydrofuran-2-yl)methoxy)isoquinolin-1-amine], for which the EC50 fell in the range of 1000 to 10000 nM. Then `Cc1ccc(Nc2nccc3cc(OCC4CC4)ccc23)cn1` [Example 28, 6-(cyclopropylmethoxy)-N-(6-methylpyridin-3-yl)isoquinolin-1-amine], with 1000 to 10000 nM; and `CC(Cc1cnn(C)c1)Oc1ccc2c(Nc3ccc(Cl)nc3)nccc2c1` (stereo not shown) [Example 296, N-(6-chloropyridin-3-yl)-6-((1-(1-methyl-1H-pyrazol-4-yl)propan-2-yl)oxy)isoquinolin-1-amine], with 1000 to 10000 nM. `FC1(COc2ccc3c(Nc4cncc(Cl)c4)nccc3c2)CC1` [Example 48, N-(5-chloropyridin-3-yl)-6-((1-fluorocyclopropyl)methoxy)isoquinolin-1-amine]: the EC50 was in the range of 1000 to 10000 nM. Then `CC1(C)CCC(COc2ccc3c(Nc4ccc(Cl)nc4)nccc3c2)O1` (stereo not shown) [Example 6, N-(6-chloropyridin-3-yl)-6-((5,5-dimethyltetrahydrofuran-2-yl)methoxy)isoquinolin-1-amine], with 1000 to 10000 nM; and `Clc1ccc(Nc2nccc3cc(OCn4cccn4)ccc23)cn1` [Example 82, 6-((1H-pyrazol-1-yl)methoxy)-N-(6-chloropyridin-3-yl)isoquinolin-1-amine], with 1000 to 10000 nM. Then `FC(F)COc1ccc2c(Nc3cnc(Cl)nc3)nccc2c1` [Example 66, N-(2-chloropyrimidin-5-yl)-6-(2,2-difluoroethoxy)isoquinolin-1-amine], with less than 1000 nM. `C[C@@H](Oc1ccc2c(Nc3ccc(Cl)nc3)nccc2c1)c1cnn(C)c1` [Example 171, (R)—N-(6-chloropyridin-3-yl)-6-(1-(1-methyl-1H-pyrazol-4-yl)ethoxy)isoquinolin-1-amine]: the EC50 is less than 1000 nM. Then `CC(C)(COc1ccc2c(Nc3ccc(Cl)nc3)nccc2c1)N1CCOCC1` [Example 101, N-(6-chloropyridin-3-yl)-6-(2-methyl-2-morpholinopropoxy)isoquinolin-1-amine], with 1000 to 10000 nM; and `FC1(COc2ccc3c(Nc4cncnc4)nccc3c2)CC1` [Example 49, 6-((1-fluorocyclopropyl)methoxy)-N-(pyrimidin-5-yl)isoquinolin-1-amine], with 1000 to 10000 nM; and `COc1ccc2c(Nc3ccc(Cl)nc3)ncc(OC)c2c1` [Example 410, N-(6-chloropyridin-3-yl)-4,6-dimethoxyisoquinolin-1-amine], with 10000 to 30000 nM.

Regarding `FC1(COc2ccc3c(Nc4cnc(Cl)nc4)nccc3c2)CC1` [Example 68, N-(2-chloropyrimidin-5-yl)-6-((1-fluorocyclopropyl)methoxy)isoquinolin-1-amine], the EC50 was less than 1000 nM. Then `Cn1ccc(COc2ccc3c(Nc4ccc(Cl)nc4)nccc3c2)n1` [Example 150, N-(6-chloropyridin-3-yl)-6-((1-methyl-1H-pyrazol-3-yl)methoxy)isoquinolin-1-amine], with less than 1000 nM; and `Clc1ccc(Nc2nccc3cc(OC[C@H]4CCN(Cc5ccccc5)C4)ccc23)cn1` [Example 284, (S)-6-((1-benzylpyrrolidin-3-yl)methoxy)-N-(6-chloropyridin-3-yl)isoquinolin-1-amine], with 1000 to 10000 nM; and `Clc1ccc(Nc2nccc3cc(OCC4COCCO4)ccc23)cn1` (stereo not shown) [Example 154, 6-((1,4-dioxan-2-yl)methoxy)-N-(6-chloropyridin-3-yl)isoquinolin-1-amine], with less than 1000 nM.

In the case of `C[C@@H](Oc1ccc2c(Nc3ccc(Cl)nc3)nccc2c1)C1(F)CC1` [Example 139, (R)-N-(6-chloropyridin-3-yl)-6-(1-(1-fluorocyclopropyl)ethoxy)isoquinolin-1-amine], the EC50 was 1000 to 10000 nM.

For the compound `Cc1n[nH]c(C)c1COc1ccc2c(Nc3ccc(Cl)nc3)nccc2c1` [Example 338, N-(6-chloropyridin-3-yl)-6-((3,5-dimethyl-1H-pyrazol-4-yl)methoxy)isoquinolin-1-amine], the EC50 fell in the range of 1000 to 10000 nM. Then `COc1nn(C)cc1COc1ccc2c(Nc3ccc(Cl)nc3)nccc2c1` [Example 166, N-(6-chloropyridin-3-yl)-6-((3-methoxy-1-methyl-1H-pyrazol-4-yl)methoxy)isoquinolin-1-amine], with less than 1000 nM; and `O=C(NCC1CC1)c1ccc2c(Nc3ccc(Cl)nc3)nccc2c1` [Example 419, 1-((6-chloropyridin-3-yl)amino)-N-(cyclopropylmethyl)isoquinoline-6-carboxamide], with 10000 to 30000 nM.
